# From patent US6586422B2, “Pyrazine and triazine derivatives of 1,2,4,5-tetrahydro-Benzo or Thieno [d] azepine” (Hoffman-La Roche Inc., priority 2000, dated 2003)
# Target: T1, rat mGluR1a receptor (Rattus norvegicus, UniProt P23385)
# T1 construct: expressed in transfected cells; host or cells: HEK 293 cells (transient transfection; membranes used)
# Experiment: Binding assay for the characterization of mGluR 1 antagonistic properties (tritiated radioligand displacement, membranes of transfected HEK 293 cells)
# Details: membranes of HEK 293 cells transiently transfected with rat mGluR1a; radioligand 3 nM; 1 hour at room temperature; read-out: B-IC50
# Procedure: Binding Assay for the Characterization of mGluR 1 Antagonistic Properties
# Binding assay with tritiated 1-ethyl-2-methyl-6-oxo-4-(1,1,2-tritritio-1,2,4,5-tetrahydro-benzo[d]azepin-3-yl)-1,6-dihydro-pyrimidine-5-carbonitrile (Eur. Pat. Appl. EP 1 074 549 A2): HEK 293 cells were transiently transfected with the rat mGluR1a receptor. The cells were collected and washed 3 times with PBS. The cell pellets were frozen at −80° C. Membranes were prepared from HEK 293 cells transfected with the rat mGluR1a receptor and used in the binding experiments at 10 μg proteins per assay after resuspension in a HEPES NaOH 20 mM, pH=7.4 binding buffer. 1-Ethyl-2-methyl-6-oxo-4-(1,1,2-tritritio-1,2,4,5-tetrahydro-benzo[d]azepin-3-yl)-1,6-dihydro-pyrimidine-5-carbonitrile (S.A 33.4 Ci/mmol) was used at 3 nM final concentration. The incubation with variable concentrations of potential inhibitors was performed for 1 hour at room temperature, the incubate was then filtered onto GF/B glass fiber filter preincubated 1 hour in PEI 0,1% and washed 3 times with 1 ml of cold binding buffer. The radioactivity retained on the unifilter 96 was counted using a Topcount β counter. After correction for non specific binding the data were normalized and the IC50 value calculated using a 4 parameters logistic equation which was fitted to the inhibition curve.
# T1 sequence (P23385 19-1199): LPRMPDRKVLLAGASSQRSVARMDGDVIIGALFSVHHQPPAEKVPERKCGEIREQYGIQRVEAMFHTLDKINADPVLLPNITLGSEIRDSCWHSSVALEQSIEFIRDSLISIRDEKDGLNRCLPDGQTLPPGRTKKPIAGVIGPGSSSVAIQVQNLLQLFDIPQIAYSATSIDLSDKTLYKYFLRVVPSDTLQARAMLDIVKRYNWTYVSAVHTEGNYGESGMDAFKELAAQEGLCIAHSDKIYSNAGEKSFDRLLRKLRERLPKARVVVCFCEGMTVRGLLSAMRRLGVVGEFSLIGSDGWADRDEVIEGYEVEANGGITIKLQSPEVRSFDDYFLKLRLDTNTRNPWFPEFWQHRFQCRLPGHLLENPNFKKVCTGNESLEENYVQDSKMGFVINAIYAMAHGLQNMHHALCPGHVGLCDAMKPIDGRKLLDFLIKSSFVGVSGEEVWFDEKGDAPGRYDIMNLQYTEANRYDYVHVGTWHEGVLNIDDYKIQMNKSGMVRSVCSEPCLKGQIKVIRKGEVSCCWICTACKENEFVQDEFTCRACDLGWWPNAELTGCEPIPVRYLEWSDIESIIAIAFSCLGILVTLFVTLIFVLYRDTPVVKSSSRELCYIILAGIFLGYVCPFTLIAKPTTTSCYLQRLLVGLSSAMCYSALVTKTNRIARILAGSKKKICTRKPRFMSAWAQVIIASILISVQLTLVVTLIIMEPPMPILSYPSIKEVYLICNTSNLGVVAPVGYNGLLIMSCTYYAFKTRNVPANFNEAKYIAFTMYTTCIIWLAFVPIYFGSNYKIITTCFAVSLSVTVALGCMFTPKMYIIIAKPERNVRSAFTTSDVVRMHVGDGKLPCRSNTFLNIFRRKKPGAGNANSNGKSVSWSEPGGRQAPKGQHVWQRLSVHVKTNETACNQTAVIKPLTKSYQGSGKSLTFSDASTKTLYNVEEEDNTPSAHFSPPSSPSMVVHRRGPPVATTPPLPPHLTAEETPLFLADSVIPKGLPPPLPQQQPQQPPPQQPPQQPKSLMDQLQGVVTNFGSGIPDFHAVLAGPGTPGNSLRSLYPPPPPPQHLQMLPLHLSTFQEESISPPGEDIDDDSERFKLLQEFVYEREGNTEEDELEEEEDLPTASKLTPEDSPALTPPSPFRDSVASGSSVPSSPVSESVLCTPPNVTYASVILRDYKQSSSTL
row,IC50,Structure (SMILES)
1,29 nM,"N#Cc1nnc(NCCc2cccnc2)nc1N1CCc2ccccc2CC1 [Example 9, 3-(2-Pyridin-3-yl-ethylamino)-5-(1,2,4,5-tetrahydro-benzo[d]azepin-3-yl)-[1,2,4]triazine-6-carbonitrile]"
2,27 nM,"N#Cc1nnc(N)nc1N1CCc2ccccc2CC1 [Example 2, 3-Amino-5-(1,2,4,5-tetrahydro-benzo[d]azepin-3-yl)-[1,2,4]triazine-6-carbonitrile]"
3,27 nM,"CC(C)(C)OC(=O)NCCNc1nnc(C#N)c(N2CCc3ccccc3CC2)n1 [Example 8, {2-[6-Cyano-5-(1,2,4,5-tetrahydro-benzo[d]azepin-3-yl)-[1,2,4]triazin-3-ylamino]-ethyl}-Carbamic Acid Tert-Butyl Ester]"
4,27 nM,"CC(O)CNc1nnc(C#N)c(N2CCc3ccccc3CC2)n1 (racemic) [Example 6, (RS)-3-(2-Hydroxy-propylamino)-5-(1,2,4,5-tetrahydro-benzo[d]azepin-3-yl)-[1,2,4]triazine-6-carbonitrile]"
5,31 nM,"N#Cc1nnc(NCCO)nc1N1CCc2ccccc2CC1 [Example 5, 3-(2-Hydroxy-ethylamino)-5-(1,2,4,5-tetrahydro-benzo[d]azepin-3-yl)-[1,2,4]triazine-6-carbonitrile]"
6,370 nM,"N#Cc1nnc(NN)nc1N1CCc2ccccc2CC1 [Example 7, 3-Hydrazino-5-(1,2,4,5-tetrahydro-benzo[d]azepin-3-yl)-[1,2,4]triazine-6-carbonitrile]"
7,470 nM,"N#Cc1nccnc1N1CCc2ccccc2CC1 [Example 13, 3-(1,2,4,5-Tetrahydro-benzo[d]azepin-3-yl)-pyrazine-2-carbonitrile]"
8,500 nM,"N#Cc1ncc(NCCO)nc1N1CCc2ccccc2CC1 [Example 15, 5-(2-Hydroxy-ethylamino)-3-(1,2,4,5-tetrahydro-benzo[d]azepin-3-yl)-pyrazine-2-carbonitrile]"
9,45 nM,"Cc1nc(N2CCc3ccccc3CC2)c(C#N)nc1-c1ccccc1 [Example 14, 5-Methyl-6-phenyl-3-(1,2,4,5-tetrahydro-benzo[d]azepin-3-yl)-pyrazine-2-carbonitrile]"
10,5 nM,"N#Cc1nnc(NCC2CC2)nc1N1CCc2ccccc2CC1 [Example 4, 3-(Cyclopropylmethyl-amino)-5-(1,2,4,5-tetrahydro-benzo[d]azepin-3-yl)-[1,2,4]triazine-6-carbonitrile]"
11,1380 nM,"CN(C)c1nnc(C#N)c(N2CCc3ccccc3CC2)n1 [Example 3, 3-Dimethylamino-5-(1,2,4,5-tetrahydro-benzo[d]azepin-3-yl)-[1,2,4]triazine-6-carbonitrile]"
12,3000 nM,"COCCOc1nnc(C#N)c(N2CCc3ccccc3CC2)n1 [Example 1, 3-(2-Methoxy-ethoxy)-5-(1,2,4,5-tetrahydro-benzo[d]azepin-3-yl)-[1,2,4]triazine-6-carbonitrile]"
